From patent publication US10543212B2, “Substituted amines for treating cardiac diseases” (Cardurion Pharmaceuticals, LLC, priority 2017, dated 2020) come the findings set out here.

The target in the test is T1, Full-length, GST-tagged, human CaMKIIδ (Homo sapiens, UniProt Q13557).
T1 construct: Full-Length, Glutathione-S-Transferase(GST)-Tagged, Human CaMKIIδ was purchased from Carna Biosciences; purchased Carna Biosciences 02-111
The test is described as follows: CaMKIIδ binding assay (TR-FRET with BODIPY-labeled probe ligand). In a few lines: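 Compounds were tested as 4-fold, eight-point series for 1 hr at room temperature, and IC50 was obtained by logistic fitting against a 3 μM parent-compound control. Signal came from displacement of a 300 nM BODIPY ligand from 0.5 nM GST-CaMKIIδ, detected via Tb-anti-GST in calmodulin/Ca2+ (pH 7.6).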

Where [1] appears, read: CaMKIIδ binding assay, results of Table 2.
[2] abbreviates: Table 2, CaMKIIδ binding assay, activity given as class A/B/C.
Where [3] appears, read: Table 2, activity class for CaMKIIδ.
Where [4] appears, read: CaMKIIδ binding assay, activity class per Table 2.

T1 sequence (Q13557 1-478 isoform Q13557-12): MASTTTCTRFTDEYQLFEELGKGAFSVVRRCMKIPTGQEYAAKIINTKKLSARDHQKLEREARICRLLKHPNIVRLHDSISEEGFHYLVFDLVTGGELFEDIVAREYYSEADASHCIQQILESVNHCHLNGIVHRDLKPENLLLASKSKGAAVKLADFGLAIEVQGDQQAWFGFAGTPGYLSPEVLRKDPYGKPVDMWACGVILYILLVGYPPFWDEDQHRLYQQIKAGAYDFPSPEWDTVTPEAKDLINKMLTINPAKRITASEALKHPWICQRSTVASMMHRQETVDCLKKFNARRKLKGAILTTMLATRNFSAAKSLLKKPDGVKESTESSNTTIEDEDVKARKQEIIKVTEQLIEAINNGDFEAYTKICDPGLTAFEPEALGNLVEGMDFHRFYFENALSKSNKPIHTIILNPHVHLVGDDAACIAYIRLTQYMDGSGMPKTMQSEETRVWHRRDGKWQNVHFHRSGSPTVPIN

With `Cc1ncc(N2CCC(N3CCOCC3)CC2)cc1Nc1ncc(-c2ccc(Cl)c(O[C@@H](C)Cn3cnnn3)c2)cn1` [Example 462, (S)-5-(3-((1-(1H-tetrazol-1-yl)propan-2-yl)oxy)-4-chlorophenyl)-N-(2-methyl-5-(4-morpholinopiperidin-1-yl)pyridin-3-yl)pyrimidin-2-amine], the IC50 (in general, the concentration at which inhibition is half-maximal) under setting [1] was < 0.01 µM.
For `C[C@@H](Cn1cnnn1)Oc1cc(-c2cnc(Nc3cn([C@H]4CC[C@H](N5CCOCC5)CC4)nc3C(F)(F)F)nc2)ccc1F` [Example 808, 5-(3-(((S)-1-(1H-tetrazol-1-yl)propan-2-yl)oxy)-4-fluorophenyl)-N-(1-(trans-4-morpholinocyclohexyl)-3-(trifluoromethyl)-1H-pyrazol-4-yl)pyrimidin-2-amine], the IC50 under setting [2] was < 0.01 µM.
With `COc1cc(C2CCCNC2)ccc1Nc1ncc(-c2ccc(Cl)c(O[C@@H](C)Cn3cnnn3)c2)cn1` (stereo partly drawn) [Example 473, 5-(3-(((S)-1-(1H-tetrazol-1-yl)propan-2-yl)oxy)-4-chlorophenyl)-N-(2-methoxy-4-(piperidin-3-yl)phenyl)pyrimidin-2-amine], the IC50 under setting [1] was < 0.01 µM.
For the compound `C[C@@H](Cn1cnnn1)Oc1cc(-c2cnc(Nc3cn(CS(C)(=O)=O)nc3C(F)(F)F)nc2)ccc1Cl` [Example 848, (S)-5-(3-((1-(1H-tetrazol-1-yl)propan-2-yl)oxy)-4-chlorophenyl)-N-(1-((methylsulfonyl)methyl)-3-(trifluoromethyl)-1H-pyrazol-4-yl)pyrimidin-2-amine], the IC50 under setting [2] is < 0.01 µM.
As to `C[C@@H](Cn1cnnn1)Oc1cc(-c2cnc(Nc3cn([C@H]4CC[C@H](N5CC(O)(C(F)(F)F)C5)CC4)nc3C(F)(F)F)nc2)ccc1Cl` [Example 857, 1-(trans-4-(4-((5-(3-(((S)-1-(1H-tetrazol-1-yl)propan-2-yl)oxy)-4-chlorophenyl)pyrimidin-2-yl)amino)-3-(trifluoromethyl)-1H-pyrazol-1-yl)cyclohexyl)-3-(trifluoromethyl)azetidin-3-ol], under setting [2], the IC50 is < 0.01 µM.
On the same count and under the same terms, under `C[C@@H](Cn1cnnn1)Oc1cc(-c2cnc(Nc3cn(C4CCN(C5CC5)CC4)nc3OCC(F)(F)F)nc2)ccc1Cl` [Example 794, (S)-5-(3-((1-(1H-tetrazol-1-yl)propan-2-yl)oxy)-4-chlorophenyl)-N-(1-(1-cyclopropylpiperidin-4-yl)-3-(2,2,2-trifluoroethoxy)-1H-pyrazol-4-yl)pyrimidin-2-amine] stands < 0.01 µM.
In the case of `C[C@@H](Cn1cnnn1)Oc1cc(-c2cnc(Nc3cn(CC4CCCN4)nc3C(F)(F)F)nc2)ccc1Cl` (stereo partly drawn) [Example 602, 5-(3-(((S)-1-(1H-tetrazol-1-yl)propan-2-yl)oxy)-4-chlorophenyl)-N-(1-(pyrrolidin-2-ylmethyl)-3-(trifluoromethyl)-1H-pyrazol-4-yl)pyrimidin-2-amine], the IC50 under setting [3] was < 0.01 µM.
For the compound `C[C@@H](Cn1cnnn1)Oc1cc(-c2cnc(Nc3cn(-c4cccc(=O)[nH]4)nc3OCC(F)(F)F)nc2)ccc1Cl` [Example 879, (S)-6-(4-((5-(3-((1-(1H-tetrazol-1-yl)propan-2-yl)oxy)-4-chlorophenyl)pyrimidin-2-yl)amino)-3-(2,2,2-trifluoroethoxy)-1H-pyrazol-1-yl)pyridin-2(1H)-one], under setting [2], the IC50 lay within 0.01 to 0.1 µM.
Same read-out and setting: under `COCC(C)n1cc(Nc2ncc(-c3ccc(Cl)c(O[C@@H](C)Cn4cnnn4)c3)cn2)c(OCC(F)(F)F)n1` (stereo partly drawn) [Example 776, 5-(3-(((S)-1-(1H-tetrazol-1-yl)propan-2-yl)oxy)-4-chlorophenyl)-N-(1-(1-methoxypropan-2-yl)-3-(2,2,2-trifluoroethoxy)-1H-pyrazol-4-yl)pyrimidin-2-amine] stands < 0.01 µM; under `C[C@@H](Cn1cnnn1)Oc1cc(-c2cnc(Nc3cn([C@H]4CC[C@H](N5CC6(COC6)C5)CC4)nc3OCC(F)F)nc2)ccc1Cl` [Example 827, 5-(3-(((S)-1-(1H-tetrazol-1-yl)propan-2-yl)oxy)-4-chlorophenyl)-N-(1-(trans-4-(2-oxa-6-azaspiro[3.3]heptan-6-yl)cyclohexyl)-3-(2,2-difluoroethoxy)-1H-pyrazol-4-yl)pyrimidin-2-amine], < 0.01 µM; under `C[C@@H](Cn1cnnn1)Oc1cc(-c2cnc(Nc3cn([C@H]4CC[C@@H](N5CC6(COC6)C5)CC4)nc3C(F)(F)F)nc2)ccc1Cl` [Example 823, 5-(3-(((S)-1-(1H-tetrazol-1-yl)propan-2-yl)oxy)-4-chlorophenyl)-N-(1-(cis-4-(2-oxa-6-azaspiro[3.3]heptan-6-yl)cyclohexyl)-3-(trifluoromethyl)-1H-pyrazol-4-yl)pyrimidin-2-amine], < 0.01 µM.
In turn, `CCN(CC)C(=O)Cn1cc(Nc2ncc(-c3ccc(Cl)c(O[C@@H](C)Cn4cnnn4)c3)cn2)c(C(F)(F)F)n1` [Example 606, (S)-2-(4-((5-(3-((1-(1H-tetrazol-1-yl)propan-2-yl)oxy)-4-chlorophenyl)pyrimidin-2-yl)amino)-3-(trifluoromethyl)-1H-pyrazol-1-yl)-N,N-diethylacetamide] displayed an IC50 under setting [3] of 0.01 to 0.1 µM.
Regarding `C[C@@H](Cn1cnnn1)Oc1cc(-c2cnc(Nc3cn(C(C)(C)C(N)=O)nc3OCC(F)(F)F)nc2)ccc1Cl` [Example 894, (S)-2-(4-((5-(3-((1-(1H-tetrazol-1-yl)propan-2-yl)oxy)-4-chlorophenyl)pyrimidin-2-yl)amino)-3-(2,2,2-trifluoroethoxy)-1H-pyrazol-1-yl)-2-methylpropanamide], the IC50 under setting [4] is < 0.01 µM.
Consider `C[C@@H](Cn1cnnn1)Oc1cc(-c2cnc(Nc3cn(C4CCNCC4)nc3OCCF)nc2)ccc1Cl` [Example 824, (S)-5-(3-((1-(1H-tetrazol-1-yl)propan-2-yl)oxy)-4-chlorophenyl)-N-(3-(2-fluoroethoxy)-1-(piperidin-4-yl)-1H-pyrazol-4-yl)pyrimidin-2-amine], for which the IC50 under setting [2] was < 0.01 µM.
Take `COc1nc(N2CCN(C(=O)OC(C)(C)C)CC2)ccc1Nc1ncc(-c2ccc(Cl)c(O[C@@H](C)Cn3cnnn3)c2)cn1` [Example 613, tert-butyl (S)-4-(5-((5-(3-((1-(1H-tetrazol-1-yl)propan-2-yl)oxy)-4-chlorophenyl)pyrimidin-2-yl)amino)-6-methoxypyridin-2-yl)piperazine-1-carboxylate]: the IC50 under setting [3] is ≥ 0.1 µM.
As for `COc1ccc(N2CCN(C3CCOCC3)CC2)cc1Nc1ncc(-c2ccc(Cl)c(O[C@@H](C)Cn3cnnn3)c2)cn1` [Example 582, (S)-5-(3-((1-(1H-tetrazol-1-yl)propan-2-yl)oxy)-4-chlorophenyl)-N-(2-methoxy-5-(4-(tetrahydro-2H-pyran-4-yl)piperazin-1-yl)phenyl)pyrimidin-2-amine], the IC50 under setting [1] was < 0.01 µM.
Regarding `COc1ccc(C(=O)N2CCN(CC3CC3)CC2)cc1Nc1ncc(-c2ccc(Cl)c(O[C@@H](C)Cn3cnnn3)c2)cn1` [Example 681, (S)-(3-((5-(3-((1-(1H-tetrazol-1-yl)propan-2-yl)oxy)-4-chlorophenyl)pyrimidin-2-yl)amino)-4-methoxyphenyl) (4-(cyclopropylmethyl)piperazin-1-yl)methanone], the IC50 under setting [3] is < 0.01 µM.
For the compound `C[C@@H](Cn1cnnn1)Oc1cc(-c2cnc(Nc3cn(C4CC5(C4)CN(C4CCOCC4)C5)nc3OCC(F)(F)F)nc2)ccc1C(F)F` [Example 939, (S)-5-(3-((1-(1H-tetrazol-1-yl)propan-2-yl)oxy)-4-(difluoromethyl)phenyl)-N-(1-(2-(tetrahydro-2H-pyran-4-yl)-2-azaspiro[3.3]heptan-6-yl)-3-(2,2,2-trifluoroethoxy)-1H-pyrazol-4-yl)pyrimidin-2-amine], the IC50 under setting [4] was < 0.01 µM.
In the case of `CCOC(=O)c1nn(CC)cc1Nc1ncc(-c2ccc(Cl)c(O[C@@H](C)Cn3cnnn3)c2)cn1` [Example 873, ethyl (S)-4-((5-(3-((1-(1H-tetrazol-1-yl)propan-2-yl)oxy)-4-chlorophenyl)pyrimidin-2-yl)amino)-1-ethyl-1H-pyrazole-3-carboxylate], the IC50 under setting [2] is < 0.01 µM.
Take `C[C@@H](Cn1cnnn1)Oc1cc(-c2cnc(Nc3cn(C4CC5(C4)CN(C(=O)OC(C)(C)C)C5)nc3OCC(F)(F)F)nc2)ccc1C(F)F` [Example 948, tert-butyl (S)-6-(4-((5-(3-((1-(1H-tetrazol-1-yl)propan-2-yl)oxy)-4-(difluoromethyl)phenyl)pyrimidin-2-yl)amino)-3-(2,2,2-trifluoroethoxy)-1H-pyrazol-1-yl)-2-azaspiro[3.3]heptane-2-carboxylate]: the IC50 under setting [4] was ≥ 0.1 µM.
In the case of `COCC(=O)N1CCc2cc(OC)c(Nc3ncc(-c4ccc(Cl)c(O[C@@H](C)Cn5cnnn5)c4)cn3)cc2C1` [Example 500, (S)-1-(7-((5-(3-((1-(1H-tetrazol-1-yl)propan-2-yl)oxy)-4-chlorophenyl)pyrimidin-2-yl)amino)-6-methoxy-3,4-dihydroisoquinolin-2(1H)-yl)-2-methoxyethan-1-one], the IC50 under setting [1] fell in the range of 0.01 to 0.1 µM.
For `C[C@@H](Cn1cnnn1)Oc1cc(-c2cnc(Nc3cnn(CC4CC4)c3)nc2)ccc1Cl` [Example 725, (S)-5-(3-((1-(1H-tetrazol-1-yl)propan-2-yl)oxy)-4-chlorophenyl)-N-(1-(cyclopropylmethyl)-1H-pyrazol-4-yl)pyrimidin-2-amine], the IC50 under setting [3] is 0.01 to 0.1 µM.
For the compound `COCCN1CCc2cc(Nc3ncc(-c4ccc(Cl)c(O[C@@H](C)Cn5cnnn5)c4)cn3)c(OC)cc2C1` [Example 492, (S)-N-(5-(3-((1-(1H-tetrazol-1-yl)propan-2-yl)oxy)-4-chlorophenyl)pyrimidin-2-yl)-7-methoxy-2-(2-methoxyethyl)-1,2,3,4-tetrahydroisoquinolin-6-amine], the half-inhibitory concentration (IC50) under setting [1] is < 0.01 µM.
The same measure, in the same setting: to `COc1cc2c(cc1Nc1ncc(-c3ccc(Cl)c(O[C@@H](C)Cn4cnnn4)c3)cn1)CCN(C=O)C2` [Example 471, (S)-6-((5-(3-((1-(1H-tetrazol-1-yl)propan-2-yl)oxy)-4-chlorophenyl)pyrimidin-2-yl)amino)-7-methoxy-3,4-dihydroisoquinoline-2(1H)-carbaldehyde] belongs 0.01 to 0.1 µM.
